Like-named read-outs stand apart in the source and are kept apart here. One block for each compound: values may come before it.
Legend:
[1] = test system: Q7 cells (ST HDH Q7/7; immortalized mouse striatal cells); assay: Q7 striatal cell survival assay upon cystine deprivation; assay type: cell-based; settings: for EC50: Q7 cell survival after 18 h in cystine-free medium, Cell Titer Glo, read-out: EC50 (nM) geometric mean (n ≥ 3 independent experiments); for potency in rescuing Q7 cells from oxidative stress relative to the RRR isomer: compared with RRR-alpha-tocopherol
Experimental: In neuronal cells excess extracellular glutamate inhibits the cystine/glutamate antiporter leading to intracellular cysteine depletion, GSH depletion, ROS production and cell death, a phenomenon termed oxidative glutamate toxicity or oxytosis. Q7 cells (ST HDH Q7/7; immortalized mouse striatal cells) challenged with cystine-free media recapitulate this phenotype. An initial screen was performed to identify compounds effective in rescuing Q7 cells from death resulting from cystine deprivation. This method is further described in Yonezawa et al., J. Neurochem 67, 566-573 (1996), and Li et al., J Neurosci., 23, 5816-5826 (2003).
DMEM (Catalog no. 11995-040), DMEM without Cystine (Catalog no. 21013-024), PBS (Phosphate buffered saline), Penicillin-streptomycin mix, L-Glutamine and Pyruvate were purchased from Gibco. Fetal Bovine Serum was obtained from Mediatech, Inc. Mouse striatum derived ST HDH Q7/7 (Q7) cells were obtained from Dr. M. MacDonald (Massachusetts General Hospital). Methionine and Vitamin K2 were purchased from Sigma Aldrich. Cell Titer Glo 2.0 was purchased from Promega. Geneticin (G418) Sulfate was purchased from Santa Cruz Biotechnology. Cell culture medium (Growth medium) was made by combining 50 mL Fetal Bovine Serum, 100 U/mL penicillin, 100 microgram/mL streptomycin and 400 microgram/mL Geneticin (G418) Sulfate; DMEM was added to make the volume up to 500 mL. Assay medium (without Cystine) was made by combining 50 mL Fetal Bovine Serum, 100 U/mL penicillin, 100 microgram/mL streptomycin, 4 mM L-Glutamine, 1 mM Pyruvate and 30 mg/L Methionine; DMEM without Cystine was added to make the volume up to 500 mL. During the course of the experiments, these solutions were stored at 4° C. The cells were grown in 10-cm diameter tissue culture-treated dishes. Every fourth day, the cells were subcultured by trypsinization and re-seeding at a cell density of 500,000 cells per dish.
Test samples were supplied in 1.5 mL glass vials. The compounds were diluted with an appropriate volume of DMSO to result in a 1 mM stock solution. Once dissolved, they were stored at −20 ° C.
Q7 cells were cultured routinely as described herein. For 384-well cell survival assays, cells were seeded in clear bottom, black wall 384-well tissue culture-treated polystyrene plates by resuspending a cell suspension at a density of 50,000 cells/mL in growth medium, then dispensing 60 microliters of cell suspension per well using either an electronic multichannel pipette or a Multidrop™ Combi Reagent Dispenser (ThermoFisher Scientific), corresponding to 3,000 cells/well. The cell-containing plates were incubated 5 hours at 33° C. in an atmosphere with 95% humidity and 5% CO2 to allow attachment of the cells to the culture plate. 5 hours after cell seeding into the 384-well assay plate, the cell culture medium was replaced by washing 2 times with 70 microliters/well PBS (without Ca^++ and Mg^++) using a BioTek ELx405 plate washer. After the final aspiration, 60 microliters/well of assay medium (without cystine) was added using the Multidrop™ Combi Reagent Dispenser. […]
After medium change to cystine-free medium and compound addition, cell plates were incubated at 33° C. in an atmosphere of 5% CO2 and 95% humidity. […] After 15 minutes of incubation at room temperature, the luminescence (100 ms integration time) per well was determined using the BioTek Synergy plate reader. […]

[2] = biological target: SQR (sulfide:quinone oxidoreductase) (Homo sapiens, UniProt Q9Y6N5); assay: SQR activity of alpha-tocopherol quinones (rate of quinone reduction, absorbance at 266 nm); assay type: biochemical; settings: for rate of quinone reduction by SQR: 100 μM quinone, 25 nM SQR, 25° C., pH 7.5
Experimental: SQR activity in the presence of varying concentrations of the isomers of quinone derivatives of Vitamin E was evaluated by monitoring the rate of quinone reduction using the absorbance of the quinone at 266 nm. Assays were conducted at 25° C. and pH 7.5 in a volume of 100 μL in the following buffer system: 100 mM Tris, 0.5 mM EDTA, 1.0% (w/v) Triton X-100 reduced. Sulfide (as Na2S nonahydrate) as reducing substrate and sulfite (as Na2SO3) as sulfur acceptor substrate were held constant at saturating concentrations of 200 μM and 2 mM, respectively. Quinone substrates were added to final concentrations between 0-200 μM from DMSO stock solutions resulting in 2% final concentration of DMSO (enzymatic rates were independent of DMSO concentration in this range). SQR was added at 25 nM.

[3] = test system: Mouse striatum-derived ST HDH Q7/7 (Q7) cells; assay: Conversion of alpha-tocopherol to the corresponding quinone in Q7 cells; assay type: in vitro ADME; settings: dosed at 1 μM, 3 μM and 10 μM, all three concentrations
Experimental: (§1) DMEM (Catalog no. 11995-040), Penicillin-streptomycin mix, Geneticin (G418) Sulfate were purchased from Thermo Fisher Scientific. Fetal Bovine Serum was obtained from Sigma Aldrich. Mouse striatum-derived ST HDH Q7/7 (Q7) cells were obtained from Dr. M. MacDonald (Massachusetts General Hospital). HepG2 cells were obtained from ATCC. Normal human fibroblast cells (NHF) were obtained from Coriell. Cell culture medium for Q7 cell was prepared by combining 50 mL Fetal Bovine Serum, 100 U/mL penicillin, 100 microgram/mL streptomycin, and 400 microgram/mL Geneticin (G418) Sulfate; DMEM was added to bring the final volume to 500 mL. For HepG2 cells and NHF, cell culture medium was made by combining 50 mL Fetal Bovine Serum, 100 U/mL penicillin, and 100 microgram/mL streptomycin; DMEM was added to bring the final volume to 500 mL. During the course of the experiments, these solutions were stored at 4° C. […]
(§2) Quantification of compounds was determined by mass spectrometry.
(§3) The rate of conversion of R,R,R-alpha-tocopherol (black bars) and a 1:1:1:1:1:1:1:1 equimolar mixture of all 8 stereoisomers of alpha-tocopherol (grey bars) to their corresponding quinones was measured in Q7 cells and is shown in FIG. 4. The percent of total cellular compound in the quinone form was measured at three different dosed concentrations: 1 μM, 3 μM, and 10 μM. […]

HepG2 cells = assay: Conversion of alpha-tocopherol to the corresponding quinone in HepG2 cells; assay type: in vitro ADME; settings: dosed at 1 μM, 3 μM and 10 μM, all three concentrations
Experimental: as §1, §2
as §3, with “HepG2” for “Q7”, “2.” for “4.”

[4] = test system: Normal human fibroblast cells (NHF); assay: Conversion of alpha-tocopherol to the corresponding quinone in NHF cells; assay type: in vitro ADME
Experimental: DMEM (Catalog no. 11995-040), Penicillin-streptomycin mix, Geneticin (G418) Sulfate were purchased from Thermo Fisher Scientific. Fetal Bovine Serum was obtained from Sigma Aldrich. Mouse striatum-derived ST HDH Q7/7 (Q7) cells were obtained from Dr. M. MacDonald (Massachusetts General Hospital). HepG2 cells were obtained from ATCC. Normal human fibroblast cells (NHF) were obtained from Coriell. Cell culture medium for Q7 cell was prepared by combining 50 mL Fetal Bovine Serum, 100 U/mL penicillin, 100 microgram/mL streptomycin, and 400 microgram/mL Geneticin (G418) Sulfate; DMEM was added to bring the final volume to 500 mL. For HepG2 cells and NHF, cell culture medium was made by combining 50 mL Fetal Bovine Serum, 100 U/mL penicillin, and 100 microgram/mL streptomycin; DMEM was added to bring the final volume to 500 mL. During the course of the experiments, these solutions were stored at 4° C. The cells were grown in 150-cm^2 tissue culture-treated flasks until they reached 90% confluency.
Test samples were supplied in 1.5 mL glass vials. The compounds were diluted with an appropriate volume of DMSO to result in a 10 mM stock solution. Once dissolved, they were stored at −20 ° C.
Test samples were applied according to the following protocol:
Q7, HepG2, and NHF Cells were seeded separately in clear bottom, 96-well tissue culture-treated polystyrene plates by resuspending each cell suspension at a density of 200,000 cells/mL in cell culture medium, then dispensing 50 microliters of cell suspension per well using an electronic multichannel pipette, corresponding to 10,000 cells/well. […]
as §2
as §3, with “NHF” for “Q7”, “3.” for “4.”, “two” for “three”, “concentrations:” for “concentrations: 1 μM,”, “μM” for “μM,”

Sequence of SQR (sulfide:quinone oxidoreductase) (Q9Y6N5 whole entry): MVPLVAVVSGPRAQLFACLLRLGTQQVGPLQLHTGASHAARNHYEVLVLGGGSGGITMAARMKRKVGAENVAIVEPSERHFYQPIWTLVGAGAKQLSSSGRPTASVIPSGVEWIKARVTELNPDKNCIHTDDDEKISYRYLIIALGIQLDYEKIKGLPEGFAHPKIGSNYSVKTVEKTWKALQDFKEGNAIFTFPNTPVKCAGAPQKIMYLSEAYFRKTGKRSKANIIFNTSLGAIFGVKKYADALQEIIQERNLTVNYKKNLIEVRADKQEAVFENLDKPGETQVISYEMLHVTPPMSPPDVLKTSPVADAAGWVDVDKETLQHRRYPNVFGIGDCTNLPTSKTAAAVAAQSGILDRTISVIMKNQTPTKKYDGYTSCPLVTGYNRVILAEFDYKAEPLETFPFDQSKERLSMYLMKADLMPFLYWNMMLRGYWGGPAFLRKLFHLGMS

SMILES: Cc1c(C)c2c(c(C)c1O)CCC(C)(CCCC(C)CCCC(C)CCCC(C)C)O2 (single isomer, unassigned) [Equal mixture of all 8 stereoisomers of alpha-tocopherol, all-rac alpha-tocopherol]
EC50 [1]: 313 nM
potency in rescuing Q7 cells from oxidative stress relative to the RRR isomer [1]: approximately half as potent as the RRR isomer

SMILES: CC1=C(C)C(=O)C(CC[C@](C)(O)CCC[C@H](C)CCC[C@H](C)CCCC(C)C)=C(C)C1=O [R,R,R-alpha-tocopherol quinone, (R,R,R)-alpha-tocopherol quinone]
reduction rate relative to the corresponding S,R,R stereoisomer ([2]; 100 μM each): more than twice
rate of quinone reduction by SQR [2]: around 125 nM/s
rate of SQR reduction as a function of concentration ([2]; in the absence of the S,R,R isomer): increases with increasing R,R,R-alpha-tocopherol quinone concentration
rate of SQR reduction, upper limit with increasing concentration of the R,R,R isomer ([2]; in the presence of S,R,R-alpha-tocopherol quinone): ≤ 100 nM/s

percent of compound converted to the quinone form, compared with mixture of all 8 stereoisomers [3]: higher
percent of compound converted to the quinone form, compared with mixture of all 8 stereoisomers (HepG2 cells): higher
percent of compound converted, times higher than the mixture of all 8 stereoisomers ([4]; 3 μM): approximately 3 times
percent of compound converted, times higher than the mixture of all 8 stereoisomers ([4]; 10 μM): approximately 2 times
percent of compound converted to the quinone form, compared with mixture of all 8 stereoisomers ([4]; dosed at 3 μM and 10 μM, both concentrations): higher
SMILES: Cc1c(C)c2c(c(C)c1O)CC[C@@](C)(CCC[C@H](C)CCC[C@H](C)CCCC(C)C)O2 [RRR-alpha-tocopherol, (R,R,R)-alpha-tocopherol]
EC50 ([1]; Mus musculus): 175 nM

SMILES: CC1=C(C)C(=O)C(CC[C@](C)(O)CCC[C@H](C)CCC[C@H](C)CCCC(C)C)=C(C)C1=O [S,R,R-alpha-tocopherol quinone, reference compound]
rate of quinone reduction by SQR [2]: about 50 nM/s
effect on the activity of the R,R,R isomer (SQR activity) ([2]; 1:1 mixture versus pure R,R,R isomer): inhibitory effect

SMILES: Cc1c(C)c2c(c(C)c1O)CC[C@](C)(CCC[C@H](C)CCC[C@H](C)CCCC(C)C)O2 [SRR-alpha-tocopherol]
EC50 ([1]; Mus musculus): 372 nM
potency in rescuing Q7 cells from oxidative stress relative to the RRR isomer [1]: approximately half as potent as the RRR isomer

Source: US20180333389A1, “VITAMIN E COMPOSITIONS AND METHODS OF USE THEREFOR” (BIOELECTRON TECHNOLOGY CORPORATION, priority 2017, published 2018)
